Experimental data as given in ChEMBL document CHEMBL3885861, “Open TG-GATES”.

Organism: Rattus norvegicus
Experiment: Open TG-GATES - Regimen: Single
Type: toxicity, organism-based, Sprague-Dawley
Set-up: regimen Single, gender Male, age 6 weeks
Details: in vivo, po, 0 mg/kg, route gavage, dose level Control; for APTT / Bas / Eos / Fbg / Hb / Ht / Lym / MCH / MCHC / MCV / Mono / Neu / PT / Plat / RBC / Ret / WBC: tissue Blood; for KIDNEY_L / KIDNEY_R / KIDNEY_TOTAL: tissue Kidney; for LIVER: tissue Liver; for A/G / ALP / ALT / AST / BUN / CRE / Ca / Cl / DBIL / GLC / IP / K / LDH / Na / PL / RALB / TBIL / TC / TG / TP / gamma-GTP: tissue Plasma

Compound: CCN1CCCC1CNC(=O)c1cc(S(N)(=O)=O)ccc1OC (configuration not stated) [SULPIRIDE]
- TERMINAL_BW (3 h): 201.8 g
- APTT (3 h): 17.6 s
- Bas (3 h): 0%
- Eos (3 h): 0.6%
- Fbg (3 h): 247.8 mg/dL
- Hb (3 h): 13.4 g/dL
- Ht (3 h): 41.4%
- Lym (3 h): 80.2%
- MCH (3 h): 20.9 pg
- MCHC (3 h): 32.3%
- MCV (3 h): 64.8 fL
- Mono (3 h): 2.4%
- Neu (3 h): 16%
- PT (3 h): 14.1 s
- Plat (3 h): 117.7 x10_4/uL
- RBC (3 h): 639.8 x10_4/ul
- Ret (3 h): 7.5%
- WBC (3 h): 81.5 x10_2/uL
- KIDNEY_L (3 h): 0.9 g
- KIDNEY_R (3 h): 0.9 g
- KIDNEY_TOTAL (3 h): 1.9 g
- LIVER (3 h): 8.6 g
- A/G (3 h): 0.9
- ALP (3 h): 1902.2 IU/L
- ALT (3 h): 49 IU/L
- AST (3 h): 92.6 IU/L
- BUN (3 h): 10.6 mg/dL
- CRE (3 h): 0.2 mg/dL
- Ca (3 h): 11 mg/dL
- Cl (3 h): 105.8 meq/L
- DBIL (3 h): 0.01 mg/dL
- GLC (3 h): 177 mg/dL
- IP (3 h): 8.9 mg/dL
- K (3 h): 4.5 meq/L
- LDH (3 h): 173.6 IU/L
- Na (3 h): 140.8 meq/L
- PL (3 h): 116 mg/dL
- RALB (3 h): 2.4 g/dL
- TBIL (3 h): 0.074 mg/dL
- TC (3 h): 60.8 mg/dL
- TG (3 h): 50.2 mg/dL
- TP (3 h): 5.1 g/dL
- gamma-GTP (3 h): 1.6 IU/L
- TERMINAL_BW (6 h): 198.5 g
- APTT (6 h): 17.4 s
- Bas (6 h): 0.2%
- Eos (6 h): 0.8%
- Fbg (6 h): 276.2 mg/dL
- Hb (6 h): 13.3 g/dL
- Ht (6 h): 41.6%
- Lym (6 h): 79.4%
- MCH (6 h): 20.5 pg
- MCHC (6 h): 32%
- MCV (6 h): 64.1 fL
- Mono (6 h): 2.4%
- Neu (6 h): 16.4%
- PT (6 h): 13.5 s
- Plat (6 h): 123.5 x10_4/uL
- RBC (6 h): 649.6 x10_4/ul
- Ret (6 h): 8%
- WBC (6 h): 87.4 x10_2/uL
- KIDNEY_L (6 h): 0.9 g
- KIDNEY_R (6 h): 0.9 g
- KIDNEY_TOTAL (6 h): 1.8 g
- LIVER (6 h): 8.6 g
- A/G (6 h): 0.9
- ALP (6 h): 1354.6 IU/L
- ALT (6 h): 38.2 IU/L
- AST (6 h): 78 IU/L
- BUN (6 h): 9 mg/dL
- CRE (6 h): 0.2 mg/dL
- Ca (6 h): 10.7 mg/dL
- Cl (6 h): 105 meq/L
- DBIL (6 h): 0.01 mg/dL
- GLC (6 h): 192.2 mg/dL
- IP (6 h): 9.3 mg/dL
- K (6 h): 4.3 meq/L
- LDH (6 h): 105 IU/L
- Na (6 h): 141.2 meq/L
- PL (6 h): 128.6 mg/dL
- RALB (6 h): 2.5 g/dL
- TBIL (6 h): 0.072 mg/dL
- TC (6 h): 72.2 mg/dL
- TG (6 h): 53 mg/dL
- TP (6 h): 5.2 g/dL
- gamma-GTP (6 h): 1.8 IU/L
- TERMINAL_BW (9 h): 200.2 g
- APTT (9 h): 16.9 s
- Bas (9 h): 0.2%
- Eos (9 h): 1%
- Fbg (9 h): 302.8 mg/dL
- Hb (9 h): 13.3 g/dL
- Ht (9 h): 41.6%
- Lym (9 h): 74.2%
- MCH (9 h): 19.8 pg
- MCHC (9 h): 32%
- MCV (9 h): 62 fL
- Mono (9 h): 2.6%
- Neu (9 h): 21.6%
- PT (9 h): 13.5 s
- Plat (9 h): 126.7 x10_4/uL
- RBC (9 h): 670.8 x10_4/ul
- Ret (9 h): 7.8%
- WBC (9 h): 76.7 x10_2/uL
- KIDNEY_L (9 h): 0.9 g
- KIDNEY_R (9 h): 0.9 g
- KIDNEY_TOTAL (9 h): 1.8 g
- LIVER (9 h): 8.1 g
- A/G (9 h): 0.9
- ALP (9 h): 1441.6 IU/L
- ALT (9 h): 69 IU/L
- AST (9 h): 70.4 IU/L
- BUN (9 h): 7.6 mg/dL
- CRE (9 h): 0.2 mg/dL
- Ca (9 h): 10.7 mg/dL
- Cl (9 h): 105.4 meq/L
- DBIL (9 h): 0.006 mg/dL
- GLC (9 h): 170.8 mg/dL
- IP (9 h): 9.8 mg/dL
- K (9 h): 3.9 meq/L
- LDH (9 h): 132.4 IU/L
- Na (9 h): 141.4 meq/L
- PL (9 h): 125 mg/dL
- RALB (9 h): 2.5 g/dL
- TBIL (9 h): 0.074 mg/dL
- TC (9 h): 70.8 mg/dL
- TG (9 h): 61 mg/dL
- TP (9 h): 5.3 g/dL
- gamma-GTP (9 h): 1.4 IU/L
- TERMINAL_BW (24 h): 216.8 g
- APTT (24 h): 17.3 s
- Bas (24 h): 0.4%
- Eos (24 h): 1%
- Fbg (24 h): 278 mg/dL
- Hb (24 h): 13.3 g/dL
- Ht (24 h): 41.1%
- Lym (24 h): 76.4%
- MCH (24 h): 20.7 pg
- MCHC (24 h): 32.4%
- MCV (24 h): 63.9 fL
- Mono (24 h): 3.2%
- Neu (24 h): 18.4%
- PT (24 h): 13.1 s
- Plat (24 h): 127.4 x10_4/uL
- RBC (24 h): 642.4 x10_4/ul
- Ret (24 h): 7.4%
- WBC (24 h): 96.8 x10_2/uL
- KIDNEY_L (24 h): 0.9 g
- KIDNEY_R (24 h): 0.9 g
- KIDNEY_TOTAL (24 h): 1.8 g
- LIVER (24 h): 9.8 g
- A/G (24 h): 0.9
- ALP (24 h): 1626.2 IU/L
- ALT (24 h): 39.6 IU/L
- AST (24 h): 77.2 IU/L
- BUN (24 h): 14.6 mg/dL
- CRE (24 h): 0.2 mg/dL
- Ca (24 h): 10.9 mg/dL
- Cl (24 h): 106.4 meq/L
- DBIL (24 h): 0.012 mg/dL
- GLC (24 h): 186.2 mg/dL
- IP (24 h): 7.5 mg/dL
- K (24 h): 4.2 meq/L
- LDH (24 h): 98.2 IU/L
- Na (24 h): 141.6 meq/L
- PL (24 h): 140 mg/dL
- RALB (24 h): 2.5 g/dL
- TBIL (24 h): 0.058 mg/dL
- TC (24 h): 74 mg/dL
- TG (24 h): 96.8 mg/dL
- TP (24 h): 5.4 g/dL
- gamma-GTP (24 h): 1 IU/L
